Measured values taken from patent US20030220524A1, “Sulfur containing compounds” (priority 2000, published 2003).

Assays:
Type in all cases: cell-based
Aspergillus flavus = assay: Antifungal paper disk test, diameter of clear zone; conditions: for zone of inhibition at 100 µg/disc: read-out: Diameter (mm) of clear Zone A. flavus
Experimental: (§1) Sulfur compounds were tested for antifungal activity against pure cultures of Aspergillus niger and Aspergillus flavus supplied by Ward's Natural Science Ltd (St. Catharines, Ontario, Canada). They were maintained on Sabouraud Dextrose Agar.
(§2) For the test, 6 agar plugs (5 mm diameter) were cut from a 5-8 day old colony and homogenized in distilled, sterilized water (2 ml). A portion of this suspension (0.5 ml) was transferred aseptically to a Petri plate with Sabouraud Dextrose Agar (15 ml) and spread evenly over the entire surface. […] Each test compound was applied to the disks as a solution (50 mg compound/10 ml acetone). Control disks were treated with neat acetone (20 μl). Test plates with fungal homogenates and disks were incubated at 18-20° C. for 2 days. For each test four replicate plates were used. The diameter of the clear zone surrounding the disk was taken as the indicator of antifungal activity.

Aspergillus niger = assay: Antifungal paper disk test, diameter of clear zone; conditions: for zone of inhibition at 100 µg/disc: read-out: Diameter (mm) of clear Zone A. niger
Experimental: as §1, §2

[1] = tested on: Aspergillus niger and Aspergillus flavus; assay: Antifungal activity; conditions: in words; for Antifungal activity: dose not given
Experimental: as §1
For the test, 6 agar plugs (5 mm diameter) were cut from a 5-8 day old colony and homogenized in distilled, sterilized water (2 ml). A portion of this suspension (0.5 ml) was transferred aseptically to a Petri plate with Sabouraud Dextrose Agar (15 ml) and spread evenly over the entire surface. Each plate was supplied with four evenly spaced paper disks (7 mm, Whatman Number 1 filter paper) containing the test compound (0, 25, 50 and 100 μg respectively). Each test compound was applied to the disks as a solution (50 mg compound/10 ml acetone). Control disks were treated with neat acetone (20 μl). Test plates with fungal homogenates and disks were incubated at 18-20° C. for 2 days. For each test four replicate plates were used. The diameter of the clear zone surrounding the disk was taken as the indicator of antifungal activity.

[2] = 0.25 μg/disk, Appl'n Solvent Acetone
[3] = Aspergillus flavus, 25 μg/disk, acetone
[4] = Aspergillus niger, 25 μg/disk, acetone
[5] = Aspergillus flavus, 100 μg/disk, acetone
[6] = Aspergillus niger, 100 μg/disk, acetone

Molecule: 1-p-toluenesulfonyl-4-propionoxy-2,3-dithiabutane [C2H5OC(O)CH2SSCH2SO2(C6H4)—p-CH3]
- Diameter (mm) of clear Zone A. flavus (Aspergillus flavus; [2]): 5.2 mm
- Diameter (mm) of clear Zone A. niger (Aspergillus niger; [2]): 8.5 mm

Molecule: O=S(=O)(Sc1ccccc1)c1ccccc1 [(C6H5)SO2S(C6H5)]
- Diameter (mm) of clear Zone A. flavus (Aspergillus flavus; 25 μg/disk, acetone): 3.8 mm
- Diameter (mm) of clear Zone A. niger (Aspergillus niger; 25 μg/disk, acetone): 3.9 mm

Molecule: CSCSSCSC [(CH3SCH2S)2, reference compound]
- Diameter (mm) of clear Zone A. flavus (Aspergillus flavus; 100 μg/disk, acetone): 2.3 mm
- Diameter (mm) of clear Zone A. niger (Aspergillus niger; 100 μg/disk, acetone): 2.5 mm

Molecule: CSSCS(=O)(=O)c1ccccc1 [C6H5SO2CH2SSCH3, α-phenylsulfonyl dimethyl disulphide]
- Diameter (mm) of clear Zone A. flavus (Aspergillus flavus; 25 μg/disk, acetone): 4.2 mm
- Diameter (mm) of clear Zone A. niger (Aspergillus niger; 25 μg/disk, acetone): 5.5 mm

Molecule: CCC(=O)OCSSC [CH3CH2C(O)OCH2SSCH3, 2,3-dithiabutyl propionate]
- zone of inhibition at 25 µg/disc (Aspergillus flavus; [3]): 7.6 mm
- zone of inhibition at 25 µg/disc (Aspergillus niger; [4]): 14.8 mm

Molecule: CCS(=O)(=O)SC [CH3CH2SO2SCH3, Methyl Ethanethiosulfonate]
- Diameter (mm) of clear Zone A. flavus (Aspergillus flavus; 50 μg/disk, acetone): 1.3 mm
- Diameter (mm) of clear Zone A. niger (Aspergillus niger; 50 μg/disk, acetone): 2.0 mm

Molecule: CCC(=O)OCSSCC(=O)OC [CH3OC(O)CH2SSCH2OC(O)C2H5, methyl 3,4-dithia-5-propionoxypentanoate]
- zone of inhibition at 0.25 µg/disc (Aspergillus flavus; Aspergillus flavus, 0.25 μg/disk, Appl'n Solvent Acetone): 2.3 mm
- zone of inhibition at 0.25 µg/disc (Aspergillus flavus; Aspergillus flavus, 0.25 μg/disk, Appl'n Solvent DMSO): 7.9 mm
- zone of inhibition at 0.25 µg/disc (Aspergillus niger; Aspergillus niger, 0.25 μg/disk, Appl'n Solvent Acetone): 3 mm
- zone of inhibition at 0.25 µg/disc (Aspergillus niger; Aspergillus niger, 0.25 μg/disk, Appl'n Solvent DMSO): 11.7 mm

Molecule: CSCS(C)(=O)=O [CH3SO2CH2SCH3, 2,4-dithiapentane 2,2-dioxide]
- zone of inhibition at 100 µg/disc (Aspergillus flavus; [5]): 0 mm
- zone of inhibition at 100 µg/disc (Aspergillus niger; [6]): 0 mm

Molecule: CCSSCS(C)(=O)=O [CH3SO2CH2SSCH2CH3, 2,4,5-trithiaheptane 2,2,-dioxide]
- Diameter (mm) of clear Zone A. flavus (Aspergillus flavus; 25 μg/disk, acetone): 3.3 mm
- Diameter (mm) of clear Zone A. niger (Aspergillus niger; 25 μg/disk, acetone): 4.8 mm

Molecule: CSSCS(C)(=O)=O [CH3SO2CH2SSCH3, α-methylsulfonyl dimethyl disulphide]
- Diameter (mm) of clear Zone A. flavus (Aspergillus flavus; 25 μg/disk, acetone): 3.8 mm
- Diameter (mm) of clear Zone A. niger (Aspergillus niger; 25 μg/disk, acetone): 2.7 mm

Molecule: CSSCCOC(C)=O [CH3SSCH2CH2OC(O)CH3, 3,4-dithiapentyl acetate]
- zone of inhibition at 100 µg/disc (Aspergillus flavus; [5]): 0 mm
- zone of inhibition at 100 µg/disc (Aspergillus niger; [6]): 0 mm

Molecule: CSSCOC(=O)c1ccccc1 [CH3SSCH2OC(O)Ph, 2,3-dithiabutyl benzoate]
- zone of inhibition at 25 µg/disc (Aspergillus flavus; [3]): 8.4 mm
- zone of inhibition at 25 µg/disc (Aspergillus niger; [4]): 6.1 mm

Molecule: CSSC [CH3SSCH3, dimethyl disulphide]
- Diameter (mm) of clear Zone A. flavus (Aspergillus flavus; 100 μg/disk, acetone): 0 mm
- Diameter (mm) of clear Zone A. niger (Aspergillus niger; 100 μg/disk, acetone): 0 mm
- Antifungal activity [1]: no antifungal behaviour

Molecule: CSSc1ccccc1 [Compound C6H5SSCH3, phenyl methyl disulphide]
- zone of inhibition at 100 µg/disc (Aspergillus flavus; [5]): 0 mm
- zone of inhibition at 100 µg/disc (Aspergillus niger; [6]): 0 mm
- Antifungal activity / fungitoxicity ([1]; 100 μg/disk): no observable fungitoxicity

Molecule: CS(=O)(=O)c1ccccc1SSc1ccccc1S(C)(=O)=O [[o-CH3SO2(C6H4)S]2, o-methylsulfonylphenyl disulphide]
- zone of inhibition at 25 µg/disc (Aspergillus flavus; [3]): 3 mm
- zone of inhibition at 25 µg/disc (Aspergillus niger; [4]): 3.3 mm

Molecule: CS(=O)(=O)c1ccc(SSc2ccc(S(C)(=O)=O)cc2)cc1 [[p-CH3SO2(C6H4)S]2, p-methylsulfonylphenyl disulphide]
- zone of inhibition at 25 µg/disc (Aspergillus flavus; [3]): 6.9 mm
- zone of inhibition at 25 µg/disc (Aspergillus niger; [4]): 4 mm

Molecule: CSSc1cccc([N+](=O)[O-])c1 [m-O2N(C6H4)SSCH3, methyl m-nitrophenyl disulphide]
- zone of inhibition at 10 µg/disc (Aspergillus flavus; Aspergillus flavus, 10 μg/disk, acetone): 1.8 mm
- zone of inhibition at 10 µg/disc (Aspergillus niger; Aspergillus niger, 10 μg/disk, acetone): 1.7 mm

Molecule: COC(=O)c1ccccc1SSC [o-CH3OC(O)(C6H4)SSCH3, methyl-o(methyldithio)benzoate]
- Diameter (mm) of clear Zone A. flavus (Aspergillus flavus; 25 μg/disk, acetone): 4.3 mm
- Diameter (mm) of clear Zone A. niger (Aspergillus niger; 25 μg/disk, acetone): 2.8 mm

Molecule: Cc1ccc(S(=O)(=O)CS)cc1 [p-CH3(C6H4)SO2CH2SH, α-p-toluenesulfonyl methyl mercaptan]
- Diameter (mm) of clear Zone A. flavus (Aspergillus flavus; 100 μg/disk, acetone): 0 mm
- Diameter (mm) of clear Zone A. niger (Aspergillus niger; 100 μg/disk, acetone): 0 mm

Molecule: Cc1ccc(S(=O)(=O)Sc2ccc([N+](=O)[O-])cc2)cc1 [p-CH3(C6H4)SO2S(C6H4)NO2—p, p-Nitrophenyl p-Toluenethiosulfonate]
- Diameter (mm) of clear Zone A. flavus (Aspergillus flavus; 25 μg/disk, acetone): 2.0 mm
- Diameter (mm) of clear Zone A. niger (Aspergillus niger; 25 μg/disk, acetone): 3.0 mm

Molecule: Cc1ccc(S(=O)(=O)Sc2ccccc2)cc1 [p-CH3(C6H4)SO2S(C6H5)]
- Diameter (mm) of clear Zone A. flavus (Aspergillus flavus; 25 μg/disk, acetone): 3.3 mm
- Diameter (mm) of clear Zone A. niger (Aspergillus niger; 25 μg/disk, acetone): 4.3 mm

Molecule: COC(=O)CSS(=O)(=O)c1ccc(C)cc1 [p-CH3(C6H4)SO2SCH2CO2CH3, Carbomethoxymethyl p-Toluenethiosulfonate]
- Diameter (mm) of clear Zone A. flavus (Aspergillus flavus; 50 μg/disk, acetone): 1.7 mm
- Diameter (mm) of clear Zone A. niger (Aspergillus niger; 50 μg/disk, acetone): 2.9 mm

Molecule: CSS(=O)(=O)c1ccc(C)cc1 [p-CH3(C6H4)SO2SCH3]
- Diameter (mm) of clear Zone A. flavus (Aspergillus flavus; 25 μg/disk, acetone): 3.6 mm
- Diameter (mm) of clear Zone A. niger (Aspergillus niger; 25 μg/disk, acetone): 1.4 mm

Molecule: CS(=O)(=O)Oc1ccc(S(C)(=O)=O)cc1 [p-CH3SO2(C6H4)OSO2CH3, p-methylsulfonylphenyl methanesulfonate]
- zone of inhibition at 100 µg/disc (Aspergillus flavus; [5]): 0 mm
- zone of inhibition at 100 µg/disc (Aspergillus niger; [6]): 0 mm

Molecule: CS(=O)(=O)Sc1ccc([N+](=O)[O-])cc1 [p-CH3SO2S(C6H4)NO2, p-Nitrophenyl Methanethiosulfonate]
- Diameter (mm) of clear Zone A. flavus (Aspergillus flavus; 25 μg/disk, acetone): 1.2 mm
- Diameter (mm) of clear Zone A. niger (Aspergillus niger; 25 μg/disk, acetone): 1.9 mm

Molecule: CS(=O)(=O)Oc1ccc([N+](=O)[O-])cc1 [p-O2N(C6H4)OSO2CH3, p-nitrophenyl methanesulfonate]
- zone of inhibition at 100 µg/disc (Aspergillus flavus; [5]): 0 mm
- zone of inhibition at 100 µg/disc (Aspergillus niger; [6]): 0 mm

Molecule: Methyl methanethiosulfonate [CH3SO2SCH3]
- Diameter (mm) of clear Zone A. flavus (Aspergillus flavus; 100 μg/disk, acetone): 0 mm
- Diameter (mm) of clear Zone A. niger (Aspergillus niger; 100 μg/disk, acetone): 3.3 mm
- Antifungal activity [1]: effective against only one of the test fungi

Molecule: o-Carbomethoxyphenyl Methanethiosulfonate [o-CH3SO2S(C6H4)CO2CH3]
- Diameter (mm) of clear Zone A. flavus (Aspergillus flavus; 100 μg/disk, acetone): 0 mm
- Diameter (mm) of clear Zone A. niger (Aspergillus niger; 100 μg/disk, acetone): 0 mm
